Measurements taken from PMC11620503 (Antimicrobial Agents and Chemotherapy, 2024).
Values after ≈ are worked out from the molar mass of the structure shown. Read-outs that look alike come from different tables or passages of the source.

Columns and labels:
[1] = test system: 12 Gram-positive strains (including methicillin-sensitive staphylococci and streptococci); assay: Intrinsic antibacterial activity, MIC; format: cell-based; conditions: KSP-1007 alone
[2] = test system: Staphylococcus epidermidis KUB4871/methicillin-sensitive; assay: MIC, reference strains of aerobic bacteria; format: cell-based
[3] = test system: Staphylococcus epidermidis KUB4862/methicillin-resistant; assay: MIC, reference strains of aerobic bacteria; format: cell-based
[4] = test system: Streptococcus pneumoniae ATCC 49619; assay: MIC, reference strains of aerobic bacteria; format: cell-based; conditions: ATCC49619
[5] = test system: Streptococcus agalactiae ATCC 13813; assay: MIC, reference strains of aerobic bacteria; format: cell-based; conditions: ATCC13813
[6] = test system: Streptococcus mitis GTC495 (ATCC 49456); assay: MIC, reference strains of aerobic bacteria; format: cell-based; conditions: ATCC49456
[7] = test system: Streptococcus porcinus ATCC 12391; assay: MIC, reference strains of aerobic bacteria; format: cell-based; conditions: ATCC12391
[8] = test system: Streptococcus salivarius GTC215; assay: MIC, reference strains of aerobic bacteria; format: cell-based
[9] = test system: Klebsiella aerogenes NCTC 10006 (ATCC 13048); assay: MIC, reference strains of aerobic bacteria; format: cell-based
[10] = test system: Klebsiella oxytoca KUB4313; assay: MIC, reference strains of aerobic bacteria; format: cell-based
[11] = test system: Providencia rettgeri ATCC 9250; assay: MIC, reference strains of aerobic bacteria; format: cell-based; conditions: ATCC9250
[12] = test system: Enterobacter hormaechei ATCC BAA-2082; assay: MIC, reference strains of aerobic bacteria; format: cell-based; conditions: ATCCBAA2082
[13] = test system: Enterobacter cloacae NBRC 13535 (ATCC 13047); assay: MIC, reference strains of aerobic bacteria; format: cell-based
[14] = test system: Moraxella catarrhalis ATCC 25238; assay: MIC, reference strains of aerobic bacteria; format: cell-based; conditions: ATCC25238
[15] = test system: Finegoldia magna ATCC 29328; assay: MIC, agar dilution, reference strains of anaerobic bacteria; format: cell-based; conditions: ATCC29328
[16] = test system: Eggerthella lenta ATCC 43055; assay: as above; format: cell-based; conditions: ATCC43055
[17] = test system: Bacteroides fragilis ATCC 25285; assay: as above; format: cell-based; conditions: ATCC25285
[18] = test system: Bacteroides fragilis KUB2983; assay: as above; format: cell-based
[19] = test system: Bacteroides thetaiotaomicron KUB2984; assay: as above; format: cell-based
[20] = test system: Fusobacterium varium ATCC 27725; assay: as above; format: cell-based; conditions: ATCC27725
OXA-23 = OXA-23 (Acinetobacter baumannii, UniProt Q9L4P2); assay: Ki app determination (Waley's method)
IMP-6 = IMP-6 (Serratia marcescens, UniProt P52699, S214G); assay: Ki app determination (Waley's method)
CTX-Ms and PDC-11 = assay: Ki app determination, range over enzymes; conditions: read-out: Ki app values, range; range over CTX-Ms and PDC-11
[21] = test system: 207 Enterobacterales including carbapenem-resistant isolates; assay: MIC, broth microdilution; format: cell-based
[22] = test system: 55 isolates of A. baumannii; assay: MIC, broth microdilution; format: cell-based, Acinetobacter baumannii
[23] = test system: MEM-, imipenem/relebactam-, and ceftolozane/tazobactam-nonsusceptible P. aeruginosa; assay: MIC, broth microdilution; format: cell-based, Pseudomonas aeruginosa; conditions: for CLSI MIC interpretation I (intermediate) / CLSI MIC interpretation R (resistant) / CLSI MIC interpretation S (susceptible): CLSI breakpoints, marked c: breakpoints for β-lactam alone; for MIC50: Pseudomonas aeruginosa, fixed concentration (μg/mL) in label, read-out: MIC50
[24] = test system: E. coli CDC-119 (NDM-1), PBP3 mutations; assay: MIC, broth microdilution; format: cell-based; conditions: Escherichia coli
[25] = test system: E. coli CDC-137 (NDM-6), PBP3 mutations; assay: MIC, broth microdilution; format: cell-based; conditions: Escherichia coli, fixed BLI concentration (μg/mL) in parentheses in label
[26] = test system: Carbapenemase-producing P. aeruginosa (7); assay: MIC and MBC testing; format: cell-based, Pseudomonas aeruginosa; conditions: 7 carbapenemase-producing P. aeruginosa; fixed BLI concentration (μg/mL) in label
[27] = test system: MEM-nonsusceptible Enterobacterales with metallo-carbapenemases; assay: MIC, broth microdilution; format: cell-based; conditions: for CLSI MIC interpretation I (intermediate) / CLSI MIC interpretation R (resistant) / CLSI MIC interpretation S (susceptible): CLSI breakpoints, marked c: breakpoints for β-lactam alone; for MIC50 / MIC90: fixed concentration (μg/mL) in label
[28] = test system: Cefepime/taniborbactam-nonsusceptible Enterobacterales with metallo-carbapenemases (25); assay: MIC, broth microdilution; format: cell-based; conditions: CDC AR Bank
[29] = All Enterobacterales (207), cefiderocol 205 isolates, CLSI breakpoints, marked c: breakpoints for β-lactam alone, tigecycline: FDA breakpoints
[30] = All Enterobacterales (207), cefiderocol 205 isolates, fixed concentration (μg/mL) in label
[31] = Acinetobacter baumannii (55), CLSI breakpoints, marked c: breakpoints for β-lactam alone
[32] = Ceftolozane/tazobactam-nonsusceptible Pseudomonas aeruginosa (45)
[33] = Imipenem/relebactam-nonsusceptible Pseudomonas aeruginosa (43)
[34] = MEM-nonsusceptible Pseudomonas aeruginosa (76)
[35] = MEM-nonsusceptible Enterobacterales with metallo-carbapenemases (41), CDC AR Bank
[36] = MEM-nonsusceptible Enterobacterales with metallo-carbapenemases (55), cefiderocol 54 isolates, tigecycline: FDA breakpoints
[37] = CLSI breakpoints, marked c: breakpoints for β-lactam alone
[38] = fixed concentration (μg/mL) in label

Chain of IMP-6 (P52699 19-246 S214G): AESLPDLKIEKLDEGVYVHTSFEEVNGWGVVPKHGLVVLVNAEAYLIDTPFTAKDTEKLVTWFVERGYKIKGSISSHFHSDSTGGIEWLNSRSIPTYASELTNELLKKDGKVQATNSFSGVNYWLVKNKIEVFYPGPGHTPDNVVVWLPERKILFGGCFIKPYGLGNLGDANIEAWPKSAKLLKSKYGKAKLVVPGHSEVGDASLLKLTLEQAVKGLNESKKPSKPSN
Chain of OXA-23 (Q9L4P2 18-273): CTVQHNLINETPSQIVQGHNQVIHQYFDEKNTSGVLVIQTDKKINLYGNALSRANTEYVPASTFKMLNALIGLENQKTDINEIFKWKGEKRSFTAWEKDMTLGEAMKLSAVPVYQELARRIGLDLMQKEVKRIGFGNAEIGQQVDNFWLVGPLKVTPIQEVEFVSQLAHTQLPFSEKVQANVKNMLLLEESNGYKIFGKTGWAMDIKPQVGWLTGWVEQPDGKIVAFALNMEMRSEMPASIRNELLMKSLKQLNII

## N[C@@H](C(=O)N1CC(Oc2ccc3c(c2C(=O)O)OB(O)CC3)C1)c1c[nH]cn1 [KSP-1007, 7-({1-[(2R)-2-amino-2-(1H-imidazol-4-yl)acetyl]azetidin-3-yl}oxy)-2-hydroxy-3,4-dihydro-2H-1,2-benzoxaborinine-8-carboxylic acid]
[1]
  MICs, range: 0.25 to 8 µg/mL
[2]
  MIC: 4 µg/mL (≈ 10.4 µM)
[3]
  MIC: > 128 µg/mL
[4]
  MIC: 2 µg/mL (≈ 5.18 µM)
[5]
  MIC: 4 µg/mL (≈ 10.4 µM)
[6]
  MIC: 4 µg/mL (≈ 10.4 µM)
[7]
  MIC: 2 µg/mL (≈ 5.18 µM)
[8]
  MIC: 0.25 µg/mL (≈ 0.647 µM)
[9]
  MIC: > 128 µg/mL
[10]
  MIC: 128 µg/mL (≈ 331 µM)
[11]
  MIC: > 128 µg/mL
[12]
  MIC: > 128 µg/mL
[13]
  MIC: > 128 µg/mL
[14]
  MIC: 64 µg/mL (≈ 166 µM)
[15]
  MIC: 128 µg/mL (≈ 331 µM)
[16]
  MIC: > 256 µg/mL
[17]
  MIC: 8 µg/mL (≈ 20.7 µM)
[18]
  MIC: 16 µg/mL (≈ 41.4 µM)
[19]
  MIC: 32 µg/mL (≈ 82.9 µM)
[20]
  MIC: > 256 µg/mL
OXA-23
  Ki: 4.07 ± 0.237 nM
IMP-6
  Ki: 19900 nM
CTX-Ms and PDC-11
  Ki: 0.0664 to 0.79 nM

## C[C@@H](O)[C@H]1C(=O)N2C(C(=O)O)=C(S[C@@H]3CN[C@H](C(=O)N(C)C)C3)[C@H](C)[C@H]12 [MEM, meropenem]
[21]; [29]
  CLSI MIC interpretation I (intermediate): 11.1%
  CLSI MIC interpretation R (resistant): 50.2%
  CLSI MIC interpretation S (susceptible): 38.6%
[21]; [30]
  MIC50: 4 µg/mL (≈ 10.4 µM)
  MIC90: 32 µg/mL (≈ 83.4 µM)
[21]; read-out: MIC50
  MIC50: 4 µg/mL (≈ 10.4 µM)
[21]; read-out: MIC90
  MIC90: 32 µg/mL (≈ 83.4 µM)
[22]; [31]
  CLSI MIC interpretation I (intermediate): 5.5%
  CLSI MIC interpretation R (resistant): 89.1%
  CLSI MIC interpretation S (susceptible): 5.5%
[22]; Acinetobacter baumannii (55), fixed concentration (μg/mL) in label
  MIC50: 32 µg/mL (≈ 83.4 µM)
[22]; Acinetobacter baumannii, read-out: MIC50
  MIC50: 32 µg/mL (≈ 83.4 µM)
[23]; [32]
  CLSI MIC interpretation I (intermediate): 6.7%
  CLSI MIC interpretation R (resistant): 91.1%
  CLSI MIC interpretation S (susceptible): 2.2%
  MIC50: 64 µg/mL
[23]; [33]
  CLSI MIC interpretation I (intermediate): 4.7%
  CLSI MIC interpretation R (resistant): 95.3%
  CLSI MIC interpretation S (susceptible): 0%
  MIC50: 64 µg/mL
[23]; [34]
  CLSI MIC interpretation I (intermediate): 14.5%
  CLSI MIC interpretation R (resistant): 85.5%
  CLSI MIC interpretation S (susceptible): 0%
  MIC50: 16 µg/mL (≈ 41.7 µM)
[24]
  MIC: 32 µg/mL (≈ 83.4 µM)
[25]
  MIC: 32 µg/mL (≈ 83.4 µM)
[26]
  MBC range: 64 to 256 µg/mL
  MIC Range: 64 to 256 µg/mL
[2]
  MIC: 0.06 µg/mL (≈ 0.156 µM)
[3]
  MIC: 4 µg/mL (≈ 10.4 µM)
[4]
  MIC: 0.06 µg/mL (≈ 0.156 µM)
[5]
  MIC: ≤ 0.03 µg/mL
[6]
  MIC: ≤ 0.03 µg/mL
[7]
  MIC: ≤ 0.03 µg/mL
[8]
  MIC: ≤ 0.03 µg/mL
[9]
  MIC: ≤ 0.03 µg/mL
[10]
  MIC: ≤ 0.03 µg/mL
[11]
  MIC: 0.06 µg/mL (≈ 0.156 µM)
[12]
  MIC: 4 µg/mL (≈ 10.4 µM)
[13]
  MIC: 0.12 µg/mL (≈ 0.313 µM)
[14]
  MIC: ≤ 0.03 µg/mL
[27]; [35]
  CLSI MIC interpretation I (intermediate): 12.2%
  CLSI MIC interpretation R (resistant): 87.8%
  CLSI MIC interpretation S (susceptible): 0%
  MIC50: 16 µg/mL (≈ 41.7 µM)
  MIC90: >32 µg/mL
[27]; [36]
  CLSI MIC interpretation I (intermediate): 12.7%
  CLSI MIC interpretation R (resistant): 87.3%
  CLSI MIC interpretation S (susceptible): 0%
[27]; MEM-nonsusceptible Enterobacterales with metallo-carbapenemases (55), cefiderocol 54 isolates, read-out: MIC50
  MIC50: 16 µg/mL (≈ 41.7 µM)
[27]; MEM-nonsusceptible Enterobacterales with metallo-carbapenemases (55), cefiderocol 54 isolates, read-out: MIC90
  MIC90: > 32 µg/mL
[28]; [37]
  CLSI MIC interpretation I (intermediate): 0%
  CLSI MIC interpretation R (resistant): 96%
  CLSI MIC interpretation S (susceptible): 4%
[28]; [38]
  MIC50: 32 µg/mL (≈ 83.4 µM)
  MIC90: > 32 µg/mL
